Entries after “also recorded” stand apart in the source; their conditions may differ. Counter-ions that a name gives are not always drawn.
Biological target: jack bean urease (Canavalia ensiformis, UniProt P07374)
Experiment: biochemical
Details: for urease inhibitory activity in words: in vitro assay, authors' verbal grading
Procedure: Reaction mixture comprising of 25μL of enzyme (jack bean urease) (1 unit/well) solution and 55 μL of phosphate buffers (4 mM) containing 100 mM urea were incubated with 5 μL of test compounds dissolved in methanol (0.5 mM concentration) at 30 °C for 15 min in 96-well plates. Urease activity was determined by measuring ammonia production using the indophenol method as described by Weather burn. Briefly, 45 μl each phenol reagent (1 % w/v phenol and 0.005 % w/v sodium nitroprussside) and 70 μL of alkali reagent(0.5 % w/v NaOH and 0.1 % active chloride NaOCl) were added to each well. The increasing absorbance at 630 nm was measured afther 50 min, using a microplate reader (Molecular Device, USA). All reactions were performed in triplicate in a final volume of 200 μL. The results (change in absorbance per min) were processed by using softMax Pro software (molecular Device, USA). The entire assays were performed at pH 6.8. Percentage inhibitions were calculated from the formula 100 − (ODtestwell/ODcontrol) × 100. Thiourea was used as the standard inhibitor of urease.

Sequence of jack bean urease (P07374 whole entry, looked up): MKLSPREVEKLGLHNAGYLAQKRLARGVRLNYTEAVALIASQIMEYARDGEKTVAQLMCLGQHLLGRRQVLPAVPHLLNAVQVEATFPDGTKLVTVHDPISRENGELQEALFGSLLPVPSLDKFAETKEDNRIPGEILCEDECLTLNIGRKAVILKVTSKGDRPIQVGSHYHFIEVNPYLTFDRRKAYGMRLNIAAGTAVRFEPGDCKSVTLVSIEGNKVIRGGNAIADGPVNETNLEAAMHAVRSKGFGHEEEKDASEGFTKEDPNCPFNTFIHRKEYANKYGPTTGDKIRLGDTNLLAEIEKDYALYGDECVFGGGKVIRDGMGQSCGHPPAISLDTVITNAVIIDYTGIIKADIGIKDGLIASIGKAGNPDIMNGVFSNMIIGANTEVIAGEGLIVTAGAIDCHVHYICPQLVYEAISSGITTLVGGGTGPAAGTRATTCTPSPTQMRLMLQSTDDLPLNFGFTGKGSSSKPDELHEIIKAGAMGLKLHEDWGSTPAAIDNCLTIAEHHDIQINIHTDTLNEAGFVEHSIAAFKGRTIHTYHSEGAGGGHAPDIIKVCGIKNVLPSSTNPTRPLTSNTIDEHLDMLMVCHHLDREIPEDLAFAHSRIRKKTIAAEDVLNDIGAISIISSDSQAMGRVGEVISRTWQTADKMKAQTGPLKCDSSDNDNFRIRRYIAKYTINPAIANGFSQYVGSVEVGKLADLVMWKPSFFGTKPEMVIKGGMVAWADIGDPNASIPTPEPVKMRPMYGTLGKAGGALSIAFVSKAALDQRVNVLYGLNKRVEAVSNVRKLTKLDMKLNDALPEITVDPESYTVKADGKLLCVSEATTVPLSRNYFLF

Structure (SMILES)	IC50 [µM]	urease inhibitory activity in words
Cn1c(O)c(C(C2=C(O)CC(C)(C)CC2=O)c2ccccc2[N+](=O)[O-])c(=O)n(C)c1=O (stereo not shown) [Compound 4s, 5-((2-Hydroxy-4,4-dimethyl-6-oxocyclohex-1-en-1-yl)(1-nitrophenyl)methyl)-1,3-dimethyl-2,6-dioxo-1,2,3,6-tetrahydropyrimidin-4-olate diethylaminium salt]	110 ± 1.1	inactivity
Cn1c(O)c(C(c2ccc3ccccc3c2)c2c(O)n(C)c(=O)n(C)c2=O)c(=O)n(C)c1=O [Compound 4h, 5,5′-(Naphthalen-2-ylmethylene)bis(1,3-dimethylpyrimidine-2,4,6(1H,3H,5H)-trione) diethylaminium salt]	40.3 ± 0.32	–
Cn1c(O)c(C(c2ccc(C=O)cc2)c2c(O)n(C)c(=O)n(C)c2=O)c(=O)n(C)c1=O [Compound 4a, 4-(bis(6-Hydroxy-1,3-dimethyl-2,4-dioxo-1,2,3,4-tetrahydropyrimidin-5-yl)methyl)benzaldehyde diethylaminium salt]	39.3 ± 0.36	–
CC1(C)CC(=O)C(C(c2ccc(Cl)cc2)c2c(O)[nH]c(=O)[nH]c2=O)=C(O)C1 (stereo not shown) [Compound 5m, 5-((4-Chlorophenyl)(2-hydroxy-4,4-dimethyl-6-oxocyclohex-1-en-1-yl)methyl)-2,6-dioxo-1,2,3,6-tetrahydropyrimidin-4-olate diethylaminium salt]	65.9 ± 0.61	–
CC1(C)CC(=O)C(C(C2=C(O)CC(C)(C)CC2=O)c2ccccc2)=C(O)C1 [Compound 5a, 2-((2-Hydroxy-4,4-dimethyl-6-oxocyclohex-1-en-1-yl)(phenyl)methyl)-5,5-dimethyl-3-oxocyclohex-1-enolate diethylaminium salt]	74.5 ± 0.88	–
CC1(C)CC(=O)C(C(C2=C(O)CC(C)(C)CC2=O)c2c(Cl)cccc2Cl)=C(O)C1 [Compound 5g, 2-((2,6-Dichlorophenyl)(2-hydroxy-4,4-dimethyl-6-oxocyclohex-1-en-1-yl)methyl)-5,5-dimethyl-3-oxocyclohex-1-enolate diethylaminium salt]	170.7 ± 1.55	least active; also recorded: inactivity
Cc1ccc(C(c2c(O)n(C)c(=O)n(C)c2=O)c2c(O)n(C)c(=O)n(C)c2=O)cc1 [Compound 4g, 5,5′-(p-Tolylmethylene)bis(1,3-dimethylpyrimidine-2,4,6(1H,3H,5H)-trione) diethylaminium salt]	28.5 ± 0.41	–
Cn1c(O)c(C(c2ccc(O)cc2)c2c(O)n(C)c(=O)n(C)c2=O)c(=O)n(C)c1=O [Compound 4f, 5,5′-((4-hydroxyphenyl)methylene)bis(6-hydroxy-1,3-dimethylpyrimidine-2,4(1H,3H)-dione) diethylaminium salt]	54.2 ± 0.83	–
CC1(C)CC(=O)C(C(C2=C(O)CC(C)(C)CC2=O)c2ccc([N+](=O)[O-])cc2)=C(O)C1 [Compound 5f, 2-((2-Hydroxy-4,4-dimethyl-6-oxocyclohex-1-en-1-yl)(4-nitrophenyl)methyl)-5,5-dimethyl-3-oxocyclohex-1-enolate diethylaminium salt]	106 ± 1.49	inactivity
CN(C)c1ccc(C(C2=C(O)CC(C)(C)CC2=O)c2c(O)n(C)c(=O)n(C)c2=O)cc1 (stereo not shown) [Compound 4t, 5-((2-Hydroxy-4,4-dimethyl-6-oxocyclohex-1-en-1-yl)(4-(dimethylamino)phenyl)methyl)-1,3-dimethyl-2,6-dioxo-1,2,3,6-tetrahydropyrimidin-4-olate diethylaminium salt]	142.1 ± 0.64	least active; also recorded: inactivity
CC1(C)CC(=O)C(C(C2=C(O)CC(C)(C)CC2=O)c2ccc3ccccc3c2)=C(O)C1 [Compound 5s, 2-((2-Hydroxy-4,4-dimethyl-6-oxocyclohex-1-en-1-yl)(naphthalen-2-yl)methyl)-5,5-dimethyl-3-oxocyclohex-1-enolate diethylaminium salt]	123.2 ± 0.37	inactivity
